Laboratory results taken from PMC9959553, “Promising Antifungal Molecules against Mucormycosis Agents Identified from Pandemic Response Box®: In Vitro and In Silico Analyses” (Journal of Fungi, 2023).

tested on: R. oryzae UCP1295; assay: Screening of the Pandemic Response Box library at 5 µM; format: cell-based, Rhizopus oryzae; conditions: 48 h, Table S1, mean of the four values
Procedure: Rhizopus oryzae UCP is the most prevalent Mucorales species in human infections and was used as a reference strain to screen the Pandemic Response Box® library. Screening was performed according to Rollin-Pinheiro and colleagues. Each compound was diluted in RPMI 1640 medium (Sigma Chemical Co., St. Louis, MO, USA), supplemented with 2% glucose and buffered with 3-(N-morpholino) propanesulfonic acid (MOPS) (Sigma Chemical Co., St. Louis, MO, USA) (0.165 mol/L, pH 7.2, from here on referred to as ‘supplemented RPMI’) to reach 5 μM in 96-well microtiter plates. Posaconazole (5 μM) and supplemented RPMI containing 1% DMSO were used as controls (both from Sigma Chemical Co., St. Louis, MO, USA). Conidia (2 × 10^5/mL) were added and incubated for 48 h at 37 °C in a 5% CO2 atmosphere. […] An inhibition of at least 60% was defined as the cut-off to select the promising drugs with antifungal activity against the Rhizopus species.

Row | Compound | % of growth inhibition, Mean [%]
1 | CC(=O)O[C@H]1C[C@@]2(C)[C@@H](C[C@@H](O)[C@H]3[C@@]4(C)CC[C@@H](O)[C@@H](C)[C@@H]4CC[C@@]32C)/C1=C(\CCC=C(C)C)C(=O)O [MMV1578575] | -21.4
2 | C[C@@H](NC(=O)c1ccccc1-c1ccccc1)B(O)O [MMV1582493] | -37.1
3 | O=[N+]([O-])c1cn2c(n1)OC[C@@H](OCc1ccc(OC(F)(F)F)cc1)C2 [MMV688755] | 1.3
4 | CCC(C)n1ncn(-c2ccc(N3CCN(c4ccc(OCC5COC(Cn6cncn6)(c6ccc(Cl)cc6Cl)O5)cc4)CC3)cc2)c1=O (stereo not shown) [MMV637528] | -26.8
5 | O=C(c1cc(O)nc2ccccc12)N1CCN(c2ccccc2)CC1 [MMV596723] | -7.3
6 | O=C(O)c1cc(-c2ccccc2)nc2ccccc12 [MMV018362] | -11.4
7 | CCCCc1ccc(S(=O)(=O)Nc2cc(C)on2)cc1 [MMV1782108] | -13.7
8 | COC(=O)Nc1nc2cc(Sc3ccccc3)ccc2[nH]1 [MMV003143] | -14.1
9 | Cc1ccccc1NC(=O)Nc1cccc([N+](=O)[O-])c1 [MMV1581029] | 1.6
10 | [N-]=[N+]=N[C@H]1C[C@H](n2ccc(=O)[nH]c2=O)O[C@@H]1CO [MMV1593520] | 4.5
11 | COC(=O)Nc1nc2c(C)cccc2[nH]1 [MMV1782387] | -30.6
12 | Cc1c(N)cccc1Cn1ccc(OCCc2cccs2)cc1=O [MMV1578557] | -5.6
13 | O=C(O)c1ccc(-c2ccc(O[C@H]3O[C@H](CO)[C@@H](O)[C@H](O)[C@@H]3O)cc2)cc1 [MMV1633970] | -12.3
14 | CCOC(=O)N[C@@H]1CC[C@@H]2[C@@H](C1)C[C@H]1C(=O)O[C@H](C)[C@H]1[C@H]2/C=C/c1ccc(-c2cccc(F)c2)cn1 [MMV1593515] | 26.6
15 | Clc1ccc(Cn2c(CN3CCCC3)nc3ccccc32)cc1 [MMV002015] | -4.7
16 | NC(=O)c1cnc2ccc(S(=O)(=O)c3ccccc3)cc2c1Nc1ccc(O)cc1 [MMV1580848] | -15.6
17 | Cc1c[nH]c(=O)nc1NCc1ccccc1 [MMV1582489] | -18.8
18 | O=C(c1ccccc1)N1CCN(c2ccccc2NC(=O)C(Cl)(Cl)Cl)CC1 [MMV001014] | -10.6
19 | Cc1ccn2c(C(=O)NCc3ccccc3)c(C)nc2c1 [MMV1579847] | -7.2
20 | Nc1nnc(-c2ccc(Cl)cc2)s1 [MMV046261] | -8.7
21 | O=C(Nc1ccccc1C(=O)O)c1cccc(Oc2ccccc2)c1 [MMV1579784] | -27.4
22 | CC(C)C(=O)N[C@H]1[C@H]([C@H](O)[C@H](O)CO)OC(C(=O)O)=C[C@@H]1N=[N+]=[N-] [MMV1782111] | -12.9
23 | O=S(=O)(NCB(O)O)c1cc2c(Cl)ccc(Cl)c2s1 [MMV1580841] | -42.4
24 | FC(F)(F)c1cc(C(F)(F)F)c2ccc3nc(-c4nnco4)cn3c2n1 [MMV690555] | -25.6
25 | NCc1ccc(S(N)(=O)=O)cc1 [MMV002665] | -2.2

Row | Compound | % of growth inhibition, Mean [%]
26 | CC(C)(C)NC(=O)[C@@H]1CN(Cc2cnc3occc3c2)CCN1C[C@@H](O)C[C@@H](Cc1ccccc1)C(=O)N[C@H]1c2ccccc2C[C@H]1O [MMV1782353] | -11.2
27 | CC(=N)N1CC[C@H](SC2=C(C(=O)O)N3C(=O)[C@@H]([C@@H](C)O)[C@H]3C2)C1 [MMV1582382] | -12.0
28 | CN1CCN(c2ccc3[nH]c(-c4ccc5[nH]c(-c6ccc(O)cc6)nc5c4)nc3c2)CC1 [MMV020752] | -8.9
29 | CCc1cc(Cc2cnc(N)nc2N)cc2c1N(C)CCC2C (stereo not shown) [MMV1582490] | -3.0
30 | C[N+]1(C)CCCC(OC(=O)C(O)(c2ccccc2)c2ccccc2)C1 (stereo not shown) [MMV002676] | -16.3
31 | CCCC1(C2CC2)c2cc(Cl)ccc2NC(=O)N1C (stereo not shown) [MMV1782113] | -5.2
32 | CC(C)CCN1C(=O)C(C2=NS(=O)(=O)c3cc(NS(C)(=O)=O)ccc3N2)=C(O)[C@@H]2[C@H]3CC[C@H](C3)[C@@H]21 [MMV1782220] | 6.0
33 | O=C(Nc1ccccc1)N(Cc1cc(Br)ccc1O)c1ccc(F)cc1 [MMV1581552] | -12.1
34 | CC1CCc2c(N3CCC(O)CC3)c(F)cc3c(=O)c(C(=O)O)cn1c23 (stereo not shown) [MMV637659] | -19.1
35 | C=C(C)n1c(=O)n(Cc2ccccc2C)c2ccccc21 [MMV1579354] | -31.3
36 | Cc1cc(O)c2c(c1)C(=O)c1c(I)c(O)c(I)c(O)c1C2=O [MMV1581545] | -41.8
37 | CCOC(=O)Nc1cc(NC(C)CC(C)CN(CC)CC)c2nc(-c3ccccc3)c(-c3ccccc3)nc2n1 (stereo not shown) [MMV1633967] | -28.6
38 | CCc1nc(N)nc(N)c1C#CCc1ccccc1 [MMV1581549] | 18.7
39 | O=C(Nc1[nH]c(=O)ncc1F)c1ccccc1 [MMV1782225] | -27.6
40 | CC[N+]1(C/C2=C/CCCCCC2)CCC(NC(=O)C2c3cc(Cl)ccc3Oc3ccc(Cl)cc32)CC1.[I-] (stereo not shown) [MMV1580489] | -4.5
41 | CN(C)CC(=O)Nc1ccc2[nH]c(=O)c3ccccc3c2c1 [MMV1580480] | -3.9
42 | Fc1ccc2c(/C=C/c3cccnc3)c[nH]c2c1 [MMV1578889] | -15.1
43 | O=S(=O)(Nc1ccc(O)cc1)c1cccc2cccnc12 [MMV251679] | -4.7
44 | Cc1nc(N(C)C(=O)Cc2ccc(-c3ccccn3)cc2)sc1S(N)(=O)=O [MMV1580486] | -4.4
45 | O=C(c1ccc(F)cc1)N1CCN2C(=O)c3ccccc3C12c1ccccc1 (stereo not shown) [MMV1165877] | -2.4
46 | Cc1cc(C)n(O)c(=O)c1 [MMV1782389] | -20.7
47 | O=C1CCC(N2C(=O)c3ccccc3C2=O)C(=O)N1 (stereo not shown) [MMV002612] | -21.8
48 | COc1ccc2cc3[n+](cc2c1OCCN(CCn1cncn1)Cc1ccc(F)cc1F)CCc1cc2c(cc1-3)OCO2 [MMV1593540] | -0.6
49 | O=C(NCc1ncc(C(F)(F)F)cc1Cl)c1c(Cl)cccc1Cl [MMV689401] | -36.5
50 | CCc1c(O)nc2ccc(F)cc2c1OCC1CCC1 [MMV1634395] | -20.7

Row | Compound | % of growth inhibition, Mean [%]
51 | O=C(NCc1ccccc1Cl)c1cnc2ccccc2n1 [MMV1230557] | -3.7
52 | CC(C)(C)NC(=O)[C@@H]1C[C@@H]2CCCC[C@@H]2CN1C[C@@H](O)[C@H](Cc1ccccc1)NC(=O)[C@H](CC(N)=O)NC(=O)c1ccc2ccccc2n1 [MMV637879] | 25.0
53 | CC(=O)N1CCN(c2ccc(OC[C@@H]3CO[C@@](Cn4ccnc4)(c4ccc(Cl)cc4Cl)O3)cc2)CC1 [MMV637533] | -5.2
54 | O=C(NC(=O)N1CCCc2ccccc21)c1ccc(Cl)cc1Cl [MMV1782218] | -21.0
55 | O=C(NCCN1CCCCC1)c1cccc(C(F)(F)F)c1 [MMV1633964] | -2.0
56 | O=C(O)/C=C/C=C/c1cccc(Oc2cc(Cl)cc(Cl)c2)c1 [MMV1633963] | 12.3
57 | Cc1ccc(NC(=O)c2ccc(CN3CCN(C)CC3)cc2)cc1Nc1nccc(-c2cccnc2)n1 [MMV009948] | -3.0
58 | C[C@@H]1O[C@@H]1P(=O)(O)O [MMV002354] | -22.5
59 | Cc1ccc(N2CCC(CCOc3ccc(S(C)(=O)=O)cc3)CC2)nn1 [MMV1634394] | 3.3
60 | O=C(NC1CCCc2c1[nH]c1ccc(Cl)cc21)c1ccccn1 (stereo not shown) [MMV690621] | -11.4
61 | CC(C)(C)c1ccc(C(=O)NC(=O)N2CCCc3ccccc32)cc1 [MMV1782212] | -4.9
62 | NC(=O)c1c(N)sc2c1CCCCC2 [MMV056052] | -8.7
63 | OC(Cn1cncn1)(Cn1cncn1)c1ccc(F)cc1F [MMV002337] | -36.5
64 | COc1c(NC(=O)[C@H]2CC[C@@H](COc3ccc([N+](=O)[O-])cc3)CC2)c(F)cc2c(=O)c(C(=O)O)cn(C3CC3)c12 [MMV1633965] | -11.6
65 | Cn1cc(NC(=O)c2cc(NC(=O)c3ccc(/C=C/c4cnc5ccccc5c4)cc3)cn2C)cc1C(=O)NCCN1CCOCC1 [MMV1634391] | -17.4
66 | Cc1ccc(Oc2ccccc2-c2csc(N=C3NCCCN3)n2)c(C)c1 [MMV1634493] | -30.7
67 | O=c1oc2ccc(Br)cc2cc1CSc1ncc[nH]1 [MMV1782105] | -13.4
68 | Fc1ccc(-c2nc(-c3c[nH]c4ccc(Br)cc34)[nH]c2-c2ccc(F)cc2)cc1 [MMV1593537] | -11.7
69 | O=[N+]([O-])/C(Br)=C/c1ccc(Br)o1 [MMV1645051] | -39.6
70 | Cc1cc(Nc2ccc(F)cc2)nc(SCc2nc3ccccc3[nH]2)n1 [MMV1582498] | -17.0
71 | CC[C@H](CO)Nc1nc(NCc2ccccc2)c2ncn(C(C)C)c2n1 [MMV003820] | -13.4
72 | CN(O)C(=O)c1cc2c(CN3CCC[C@H]3C(N)=O)cn(Cc3ccc(F)cc3)c2cn1 [MMV1782386] | -4.5
73 | CC1CN(c2ncnc3c2c(-c2ccccc2)cn3-c2ccc(F)cc2)CC(C)O1 (stereo not shown) [MMV093250] | -16.0
